From patent US8435762B2, “Chimeric ligand-gated ion channels and methods of use thereof” (Howard Hughes Medical Institute, priority 2008, dated 2013) come the findings set out here.

Usually EC50 stands for the concentration giving half of the maximal effect.

Molecules are shown by their SMILES. “Also recorded” adds a separate entry of the source. Structures can show the parent of a compound that is named as a salt. Bounds are passed on as bounds.

For one assay, the target named is T1, α7-5HT3 L141F (Homo sapiens, UniProt P36544, L141F/M226I/T225I).
T1 construct: expressed in transfected cells; host or cells: HEK 293 cells (ATCC CRL-1573)
T1 sequence (P36544 with tags, fused parts or gaps L141F/T225I/M226I): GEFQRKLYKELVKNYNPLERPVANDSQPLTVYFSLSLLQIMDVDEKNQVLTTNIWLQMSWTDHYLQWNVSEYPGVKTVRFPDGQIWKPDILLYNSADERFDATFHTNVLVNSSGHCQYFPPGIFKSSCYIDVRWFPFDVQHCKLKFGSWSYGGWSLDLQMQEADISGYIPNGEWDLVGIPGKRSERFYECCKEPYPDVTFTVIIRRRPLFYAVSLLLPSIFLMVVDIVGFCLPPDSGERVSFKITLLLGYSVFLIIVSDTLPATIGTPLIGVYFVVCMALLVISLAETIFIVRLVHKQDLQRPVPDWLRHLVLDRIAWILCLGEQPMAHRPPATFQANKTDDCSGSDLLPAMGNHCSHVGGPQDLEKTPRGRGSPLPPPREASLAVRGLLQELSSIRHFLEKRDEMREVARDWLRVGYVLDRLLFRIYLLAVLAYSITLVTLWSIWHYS
The experiment in a line: fluorescence membrane potential (MP) assay, HEK 293 cells. The class given is cell-based, human/mouse. To be noted: read-out: EC50-MP; α7 L141F, IPD 5HT3; value (s.e.m.).

In assay [1] the target is T2, α7-5HT3 wt chimeric receptor (Homo sapiens, UniProt P36544, M226I/T225I).
T2 construct: expressed in transfected cells; host or cells: HEK 293 cells
T2 sequence (P36544 with tags, fused parts or gaps T225I/M226I): as the sequence (P36544 with tags, fused parts or gaps L141F/T225I/M226I) above, with F119L counted along it
The assay is described as above. The class given is cell-based, human/mouse. The conditions noted are these: for activity against α7-5HT3 wt (unmodified) receptor: dose response curves, MP assay; for EC50: read-out: EC50-MP, α7 wt, IPD 5HT3, value (s.e.m.).

The target in assay [2] is T3, α7-5HT3 W77F (Homo sapiens, UniProt P36544, M226I/T225I/W77F).
T3 construct: expressed in transfected cells; host or cells: HEK 293 cells (ATCC CRL-1573)
T3 sequence (P36544 with tags, fused parts or gaps W77F/T225I/M226I): as the sequence (P36544 with tags, fused parts or gaps L141F/T225I/M226I) above, with W55F, F119L counted along it
Briefly: whole cell voltage clamp recordings (Iss, Ipeak). In kind it is cell-based, human/mouse.

In assay [3] the target is T3, α7-5HT3 W77F. Briefly: fluorescence membrane potential (MP) assay, HEK 293 cells. The class given is cell-based, human/mouse.
The target in another assay is T4, α7-5HT3 Q79G Q139M (Homo sapiens, UniProt P36544, M226I/Q139M/Q79G/T225I).
T4 construct: expressed in transfected cells
T4 sequence (P36544 with tags, fused parts or gaps Q79G/Q139M/T225I/M226I): as the sequence (P36544 with tags, fused parts or gaps L141F/T225I/M226I) above, with Q57G, Q117M, F119L counted along it
Described as above. The class given is cell-based, human/mouse.

The target of another assay is T5, α7-GlyR L141F (Homo sapiens, UniProt P36544, L141F).
T5 construct: expressed in transfected cells; host or cells: HEK 293 cells (A15); cortical neurons transduced with AAV, synapsin promoter (A22)
T5 sequence (P36544 with tags, fused parts or gaps L141F): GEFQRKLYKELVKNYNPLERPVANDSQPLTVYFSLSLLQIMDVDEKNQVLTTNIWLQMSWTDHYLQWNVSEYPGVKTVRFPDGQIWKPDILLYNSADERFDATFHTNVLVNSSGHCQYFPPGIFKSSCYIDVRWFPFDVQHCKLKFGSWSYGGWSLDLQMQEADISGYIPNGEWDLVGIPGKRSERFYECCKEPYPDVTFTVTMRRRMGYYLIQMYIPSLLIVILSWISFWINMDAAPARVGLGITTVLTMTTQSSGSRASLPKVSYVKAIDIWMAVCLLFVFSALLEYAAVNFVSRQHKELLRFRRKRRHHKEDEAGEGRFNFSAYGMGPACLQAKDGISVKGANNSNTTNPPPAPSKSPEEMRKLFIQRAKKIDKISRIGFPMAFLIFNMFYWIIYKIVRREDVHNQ
The experiment in a line: whole cell voltage clamp recordings (Iss, Ipeak). The conditions noted are these: IPD GlyR. In kind it is cell-based.

The target in assay [4] is T6, α7-5HT3 Q79G (Homo sapiens, UniProt P36544, M226I/Q79G/T225I).
T6 construct: expressed in transfected cells; host or cells: HEK 293 cells (ATCC CRL-1573)
T6 sequence (P36544 with tags, fused parts or gaps Q79G/T225I/M226I): as the sequence (P36544 with tags, fused parts or gaps L141F/T225I/M226I) above, with Q57G, F119L counted along it
The experiment in a line: fluorescence membrane potential (MP) assay, HEK 293 cells. The conditions noted are these: read-out: EC50-MP; α7 Q79G, IPD 5HT3; value (s.e.m.). In kind it is cell-based, human/mouse.

Assay [5] deals with T6, α7-5HT3 Q79G. Briefly: whole cell voltage clamp recordings (Iss, Ipeak). The class given is cell-based, human/mouse.
The next assay deals with T7, α7-5HT3 Y115F (Homo sapiens, UniProt P36544, M226I/T225I/Y115F).
T7 construct: expressed in transfected cells; host or cells: not restated
T7 sequence (P36544 with tags, fused parts or gaps Y115F/T225I/M226I): as the sequence (P36544 with tags, fused parts or gaps L141F/T225I/M226I) above, with Y93F, F119L counted along it
The experiment in a line: efficacy on ACh-insensitive mutant. In kind it is cell-based, human/mouse.

For another assay, the target named is T8, α7-5HT3 Y210F (Homo sapiens, UniProt P36544, M226I/T225I/Y210F).
T8 construct: expressed in transfected cells; host or cells: not restated
T8 sequence (P36544 with tags, fused parts or gaps Y210F/T225I/M226I): as the sequence (P36544 with tags, fused parts or gaps L141F/T225I/M226I) above, with F119L, Y188F counted along it
The experiment in a line: efficacy on ACh-insensitive mutant. In kind it is cell-based, human/mouse.

Assay [6] addresses T2, α7-5HT3 wt chimeric receptor. The experiment in a line: whole cell voltage clamp recordings (Iss, Ipeak). In kind it is cell-based, human/mouse.
Where [7] appears, read: read-out: EC50-Ipeak, peak current, IPD 5HT3.
[8] abbreviates: read-out: EC50-Iss, steady state current, IPD 5HT3.
The mark [9] stands for this setting: EC50-Ipeak, peak current, *complex: multiphasic dose response.

As to `COc1ccccc1C(=O)N[C@@H]1CN2CCC1CC2` [Compound 19S, (S)-2-methoxy-N-(quinuclidin-3-yl)benzamide], the EC50 at α7-5HT3 L141F was determined as 1.4 µM. In assay [1], the “activity against α7-5HT3 wt (unmodified) receptor” value (from here on “activity against α7-5HT3 wt”) was “did not induce activate”.
`O=C(N[C@@H]1CN2CCC1CC2)c1ccc(-c2ccccc2)cc1` [Compound 28S, (S)—N-(quinuclidin-3-yl)biphenyl-4-carboxamide TFA]: the 50% effective concentration (EC50) on α7-5HT3 W77F [2] (setting [7]) was 11.3 µM; on α7-5HT3 W77F [2] (setting [8]), 2.4 µM. Further, the “activity against α7-5HT3 wt” value in [1] is recorded as “did not induce activate”.
Consider `O=C(N[C@@H]1CN2CCC1CC2)c1ccc(-c2cccs2)cc1` [Compound 34S, (S)—N-(quinuclidin-3-yl)-4-(thiophen-2-yl)benzamide], for which the EC50 at α7-5HT3 W77F [3] (α7 W77F, IPD 5HT3; value (s.e.m.); read-out: EC50-MP) was 1.4 µM. Further, the “activity against α7-5HT3 wt” value in assay [1] was “did not induce activate”.
Turning to `CS(=O)(=O)c1ccc(C(=O)N[C@H]2CN3CCC2CC3)cc1` [Compound 38R, (R)-4-(methylsulfonyl)-N-(quinuclidin-3-yl)benzamide TFA], the “fold improvement in potency (EC50), α7-5HT3 Q79G Q139M relative to α7-5HT3 Q79G” value at α7-5HT3 Q79G Q139M (EC50MP) is reported as 8 fold. Moreover, the concentration giving a half-maximal response (EC50) at α7-5HT3 Q79G Q139M (read-out: EC50-MP, α7 Q79G Q139M, IPD 5HT3, value (s.e.m.)) was found to be 0.23 ± 0.07 µM. For the same compound, in assay [1] (TFA), the “activity against α7-5HT3 wt” value is “no activity; also recorded: did not induce activate”.
`COc1ccc(C(=O)N[C@@H]2CN3CCC2CC3)c(OC)c1` [Compound 88S, (S)-2,4-dimethoxy-N-(quinuclidin-3-yl)benzamide]: on α7-5HT3 L141F, the 50% effective concentration (EC50) was determined as 0.1 ± 0.1 µM. The “activity against α7-5HT3 wt” value in [1] is given as “no activity”.
Regarding `COc1ccc(Cl)cc1C(=O)N[C@@H]1CN2CCC1CC2` [Compound 118S, (S)-5-chloro-2-methoxy-N-(quinuclidin-3-yl)benzamide TFA], the EC50 was found to be 3.2 µM on α7-GlyR L141F (setting [9]) and 3 µM at α7-GlyR L141F (EC50-Iss, steady state current).
On the same counts, the results for `COc1ccc(F)cc1C(=O)N[C@@H]1CN2CCC1CC2` [Compound 119S, (S)-5-fluoro-2-methoxy-N-(quinuclidin-3-yl)benzamide TFA] are 3.8 µM and 2.5 µM.
For the compound `O=C(N[C@@H]1CN2CCC1CC2)c1ccc(-c2ccc(F)cc2)cc1` [Compound 132S, (S)-4′-fluoro-N-(quinuclidin-3-yl)biphenyl-4-carboxamide TFA], the “selective activation of α7-5HT3 W77F over receptors with Q79G and L141F mutations” value on α7-5HT3 W77F [3] (FIG. 5 dose response curves) is “selectively activated”. In addition, the EC50 on α7-5HT3 W77F [3] (read-out: EC50-MP; α7 W77F, IPD 5HT3; value (s.e.m.)) worked out at 4.3 ± 0.5 µM.
Take `CCCc1ccc(C(=O)N[C@@H]2CN3CCC2CC3)cc1` [Compound 165S, (S)-4-propyl-N-(quinuclidin-3-yl)benzamide TFA]: the EC50 was 1.9 µM on α7-5HT3 Q79G [4], 5.9 µM on α7-5HT3 Q79G [5] (setting [7]) and 0.9 µM on α7-5HT3 Q79G [5] (setting [8]).
On to `c1ccc2c(c1)CC1C(=NN2)C2CCN1CC2` (centres unmarked) [Compound 212], for which the EC50 is 0.75 µM at α7-5HT3 L141F, above 100 µM on α7-5HT3 Q79G [4] and above 100 µM in [1].
Regarding `O=C(N[C@H]1CN2CCC1CC2)c1ccc(Cl)cc1` [PNU-282987], the “efficacy with α7-5HT3 carrying Y115F” value on α7-5HT3 Y115F is listed as “greatly reduced or eliminated”. The “efficacy with α7-5HT3 carrying Y210F” value at α7-5HT3 Y210F was “greatly reduced or eliminated”. For the same compound, the EC50 turned out to be 0.8 µM in assay [6] (peak current, IPD 5HT3, read-out: EC50-Ipeak); 0.09 µM in assay [6] (steady state current, IPD 5HT3, read-out: EC50-Iss); 0.06 µM in assay [1].
